Experimental data as given in patent US11236122B2, “Triterpene amine derivatives” (DFH THERAPEUTICS, priority 2018, dated 2022).
Counter-ions that a name gives are not always drawn.

How the values were obtained:
Format in all cases: cell-based
[1] = system: panel of HIV-1 isolates in human PBMCs; assay: PBMC antiviral assay against a panel of HIV-1 isolates (RT activity)
Method: Antiviral assays. To produce HIV-1 stocks, 293T cells were transfected with WT pNL4-3 or the SP1-V7A derivative and culture supernatants were collected 24 h post transfection. RT-normalized virus supernatants were used to infect MT-4 cells at room temperature for 30 min. Cells were then cultured in the presence of serial dilutions of compounds. At 4 d post-infection, the culture supernatants were subjected to RT assay to monitor viral replication. The 50% inhibitory concentrations (IC50s) were defined as compound concentrations that reduced RT levels to 50% those measured in the absence of inhibitor (DMSO only controls) using GraphPad Prism 6 software. The IC50s in primary peripheral blood mononuclear cells (PBMCs) were calculated with a multi-clade panel of HIV-1 isolates by Southern Research Institute (Frederick, Md.). The PBMCs were stimulated with phytohemagglutinin (PHA) and IL-2 prior to use in the antiviral assays.
Virus Isolates. Compound evaluation against a panel of HIV-1 isolates were performed by the Southern Research Institute (SRI). The viruses were chosen to include one isolate from each of the seven HIV-1 Group M envelope subtypes A, B, C, D, E, F, and G, as well as isolates from HIV-1 Groups O and N. In addition, various drug resistant HIV-1 isolates were included for evaluation. The HIV-1 isolates selected include CCR5-tropic and CXCR4-tropic isolates. Unless otherwise noted, all virus isolates were obtained from the NIH AIDS Research and Reference Reagent Program. Virus isolate 1022-48 was obtained from Dr. William A. Schief of Merck Research Laboratories. MDR769 and MDR807 were obtained from Dr. Thomas C. Merigan of Stanford University. A low passage stock of each virus was prepared using fresh human PBMCs and stored in liquid nitrogen. Pre-titered aliquots of each virus were removed from the freezer and thawed rapidly to rt in a biological safety cabinet immediately before use.
(§1) Human PBMC Preparation. Fresh human PBMCs were isolated from screened donors, seronegative for HIV and HBV (Biological Specialty Corporation, Colmar, Pa.). Cells were pelleted/washed 2-3 times by low speed centrifugation and resuspension in Dulbecco's phosphate buffered saline (PBS) to remove contaminating platelets. The leukophoresed blood was then diluted 1:1 with PBS and layered over 14 mL of Ficoll-Hypaque density gradient (Lymphocyte Separation Medium, Cell Grow #85-072-CL, density 1.078+/−0.002 g/mL) in a 50 mL centrifuge tube and then centrifuged for 30 min at 600×g. Banded PBMCs were gently aspirated from the resulting interface and subsequently washed twice with PBS by low speed centrifugation. After the final wash, cells were enumerated by trypan blue exclusion and re-suspended at 1×10^6 cells/mL in RPMI 1640 supplemented with 15% Fetal Bovine Serum (FBS), 2 mM L-glutamine, 100 U/mL penicillin, […] streptomycin, and 4 μg/mL Phytohemagglutinin (PHA; Sigma, St. Louis, Mo.; cat #L1668). The cells were allowed to incubate for 48-72 h at 37° C. After incubation, PBMCs were centrifuged and resuspended in RPMI 1640 with 15% FBS, L-glutamine, penicillin, streptomycin, non-essential amino acids (MEM/NEAA; Hyclone; cat #SH30238.01), and 20 U/mL recombinant human IL-2 (R&D Systems Inc., Minneapolis, Minn.; cat #202IL). PBMCs were maintained in this medium at a concentration of 1-2×10^6 cells/mL, with twice-weekly medium changes until they were used in the assay protocol. Monocytes-derived-macrophages were depleted from the culture as the result of adherence to the tissue culture flask.
PBMC Assay. For the standard PBMC assay, PHA stimulated cells from at least two normal donors were pooled (mixed together), diluted in fresh medium to a final concentration of 1×10^6 cells/mL, and plated in the interior wells of a 96 well round bottom microplate at 50 μL/well (5×10^4 cells/well) in a standard formate developed by the Infectious Disease Research Department of the SRI. […]

in vitro = conditions: human
Method: as §1
(§2) PBMC Assay. For the standard PBMC assay, PHA stimulated cells from at least two normal donors were pooled (mixed together), diluted in fresh medium to a final concentration of 1×10^6 cells/mL, and plated in the interior wells of a 96 well round bottom microplate at 50 μL/well (5×10^4 cells/well) in a standard formate developed by the Infectious Disease Research Department of the SRI. Pooling (mixing) of mononuclear cells from more than one donor was used to minimize the variability observed between individual donors, which results from quantitative and qualitative differences in HIV infection and overall response to the PHA and IL-2 of primary lymphocyte populations. Each plate contains virus control wells (cells plus virus) and experimental wells (drug plus cells plus virus). Test drug dilutions were prepared at a 2× concentration in microtiter tubes and 100 μL of each concentration was placed in appropriate wells using the standard format. 50 μL of a predetermined dilution of virus stock was placed in each test well (final MOI≈0.1). Separate plates were prepared identically without virus for drug cytotoxicity studies using an MTS assay system (described below; cytotoxicity plates also include compound control wells containing drug plus media without cells to control for colored compounds that affect the MTS assay). The PBMC cultures were maintained for seven days following infection at 37° C., 5% CO2. After this period, cell-free supernatant samples were collected for analysis of reverse transcriptase activity, and compound cytotoxicity was measured by addition of MTS to the separate cytotoxicity plates for determination of cell viability. Wells were also examined microscopically and any abnormalities were noted.
(§3) MTS Staining for PBMC Viability to Measure Cytotoxicity. At assay termination, the uninfected assay plates were stained with the soluble tetrazolium-based dye MTS (CellTiter 96 Reagent, Promega) to determine cell viability and quantify compound toxicity. MTS is metabolized by the mitochondria enzymes of metabolically active cells to yield a soluble formazan product, allowing the rapid quantitative analysis of cell viability and compound cytotoxicity. […] At termination of the assay, […] of MTS reagent was added per well and the microtiter plates were then incubated at 37° C., 5% CO2 to assess cell viability. […]

human PBMCs = assay: in vitro; conditions: 7 days
Method: as §1, §2, §3

[2] = Human immunodeficiency virus 1, IIIB, PBMC, isolate A17 (IIIB)
[3] = Human immunodeficiency virus 1, NL43, PBMC, isolate NL4-3, PBMC
[4] = Human immunodeficiency virus 1, NL43, PBMC, isolate NL4-3 gp41(36G) N42T, N43K, PBMC
[5] = Human immunodeficiency virus 1, PBMC, isolate 92BR030, PBMC
[6] = Human immunodeficiency virus 1, PBMC, isolate 92RW009, PBMC
[7] = Human immunodeficiency virus 1, PBMC, isolate 92UG001, PBMC
[8] = Human immunodeficiency virus 1, PBMC, isolate 93BR020, PBMC
[9] = Human immunodeficiency virus 1, PBMC, isolate 93BR029, PBMC
[10] = Human immunodeficiency virus 1, PBMC, isolate 93IN101, PBMC
[11] = Human immunodeficiency virus 1, PBMC, isolate 99UGA07412MI, PBMC
[12] = Human immunodeficiency virus 1, PBMC, isolate 1022-48, PBMC
[13] = Human immunodeficiency virus 1, PBMC, isolate 1064-52, PBMC
[14] = Human immunodeficiency virus 1, PBMC, isolate 4736_4 (NL4-3), PBMC
[15] = Human immunodeficiency virus 1, PBMC, isolate BCF02, PBMC
[16] = Human immunodeficiency virus 1, PBMC, isolate CMU02, PBMC
[17] = Human immunodeficiency virus 1, PBMC, isolate JV1083, PBMC
[18] = Human immunodeficiency virus 1, PBMC, isolate MDR769, PBMC
[19] = Human immunodeficiency virus 1, PBMC, isolate YBF30, PBMC

| Structure (SMILES) | IC50 [1, 2] | IC50 [1, 3] | IC50 [1, 4] | IC50 [1, 5] | IC50 [1, 6] | IC50 [1, 7] | IC50 [1, 8] | IC50 [1, 9] | IC50 [1, 10] | IC50 [1, 11] | IC50 [1, 12] | IC50 [1, 13] | IC50 [1, 14] | IC50 [1, 15] | IC50 [1, 16] | IC50 [1, 17] | IC50 [1, 18] | IC50 [1, 19] | CC50 at 7 days (in vitro) | CC50 (human PBMCs) | other results |
| --- | --- | --- | --- | --- | --- | --- | --- | --- | --- | --- | --- | --- | --- | --- | --- | --- | --- | --- | --- | --- | --- |
| C=C(C)[C@@H]1CC[C@]2(CCNCCN3CCS(=O)(=O)CC3)CC[C@]3(C)[C@H](CC[C@@H]4[C@@]5(C)CC[C@H](OC(=O)CC(C)(C)C(=O)O)C(C)(C)[C@@H]5CC[C@]43C)[C@@H]12 [Compound 51ee, (3β)-17-[[[2-[2-(1,1-Dioxothiomorpholin-4-yl)]Ethyl]Amino]Ethyl]-28-norlup-20(29)-en-3-ol, 3-(1-Hydrogen 2,2-Dimethylbutanedioate)] | 1.4 nM | 0.8 nM | 1.3 nM | 455 nM | 20.7 nM | 0.4 nM | 1.8 nM | 0.9 nM | 2.7 nM | 2.2 nM | 1.1 nM | 0.5 nM | 1 nM | 1.7 nM | 110 nM | 126 nM | 1.4 nM | 8.4 nM | > 1000 nM | > 1000 nM | – |
| C=C(C)[C@@H]1CC[C@]2(CCNC3CCN(CCO)CC3)CC[C@]3(C)[C@H](CC[C@@H]4[C@@]5(C)CC[C@H](OC(=O)CC(C)(C)CC(=O)O)C(C)(C)[C@@H]5CC[C@]43C)[C@@H]12 [Compound 51f, (3β)-17-[2-[[1-(2-Hydroxyethyl)piperidin-4-yl]amino]ethyl]-28-norlup-20(29)-en-3-ol, 3-(Hydrogen 3,3-Dimethylpentanedioate), Bis(trifluoroacetate) Salt] | 8.2 nM | 4 nM | 5.6 nM | 100 nM | – | – | – | 5.1 nM | 89 nM | 8.2 nM | 18.9 nM | – | 3.3 nM | 4.6 nM | 316 nM | 477 nM | 5.9 nM | 14.8 nM | > 1000 nM | > 1000 nM | IC50 ([1]; Human immunodeficiency virus 1, PBMC, isolate 92UG031, PBMC): > 1000 nM; IC50 ([1]; Human immunodeficiency virus 1, PBMC, isolate MDR807, PBMC): > 1000 nM |
| C=C(C)[C@@H]1CC[C@]2(CCNCCN3CCN(S(C)(=O)=O)CC3)CC[C@]3(C)[C@H](CC[C@@H]4[C@@]5(C)CC[C@H](OC(=O)CC(C)(C)C(=O)O)C(C)(C)[C@@H]5CC[C@]43C)[C@@H]12 [Compound 51ff, (3β)-17-[2-[[2-[4-(Methylsulfonyl)piperazin-1-yl]ethyl]amino]ethyl]-28-norlup-20(29)-en-3-ol, 3-(1-Hydrogen 2,2-Dimethylbutanedioate)] | 1.8 nM | 0.8 nM | 1.4 nM | > 1000 nM | 39.4 nM | < 0.15 nM | 2.4 nM | 1.1 nM | 14.2 nM | 4.3 nM | 1.3 nM | 0.7 nM | 0.8 nM | 2.8 nM | 217 nM | 460 nM | 1.7 nM | 3.6 nM | > 1000 nM | > 1000 nM | – |
| C=C(C)[C@@H]1CC[C@]2(CCNCCN3CCN(Cc4ccccc4)CC3)CC[C@]3(C)[C@H](CC[C@@H]4[C@@]5(C)CC[C@H](OC(=O)CC(C)(C)C(=O)O)C(C)(C)[C@@H]5CC[C@]43C)[C@@H]12 [Compound 51hh, (3β)-17-[2-[[2-[4-(Phenylmethyl)piperazin-1-yl]ethyl]amino]ethyl]-28-norlup-20(29)-en-3-ol, 3-(1-Hydrogen 2,2-Dimethylbutanedioate)] | 6.1 nM | 1.4 nM | 3.8 nM | > 1000 nM | 10.4 nM | 1.2 nM | 3 nM | 4.1 nM | 5.6 nM | 8 nM | 3.2 nM | 1.7 nM | 1.4 nM | 3.8 nM | 11.1 nM | 17.1 nM | 4.4 nM | 132 nM | > 1000 nM | > 1000 nM | IC50 ([1]; isolate CMU02, PBMC): 7.1 nM |
